From ChEMBL document CHEMBL1155783, “Novel sterically hindered cannabinoid CB1 receptor ligands” (Bioorg Med Chem, 2008)
Activity calls are given as the source filed them. No cut-off for these calls is given here.

Assays:
[1] = target: Cannabinoid receptor 1 (Homo sapiens, UniProt P21554); assay: biochemical; type: cell-based, HEK293
Description: Displacement of [3H]CP-55940 from human recombinant CB1 receptor expressed in HEK cells

[2] = target: Cannabinoid receptor 2 (Homo sapiens, UniProt P34972); assay: Displacement of [3H]CP-55940 from human recombinant CB2 receptor expressed in HEK cells; type: cell-based, HEK293
[3] = target: Cannabinoid receptor 1 (Mus musculus) (UniProt P47746); assay: Agonist activity at mouse CB1 receptor in N18TG2 cells assessed as inhibition of forskolin-stimulated cAMP formation at 1 uM in presence of 0.1 uM WIN-55212-2
[4] = species: Homo sapiens; assay: Selectivity of Ki for human recombinant CB1 receptor over Ki for human recombinant CB2 receptor

Sequence of Cannabinoid receptor 1 (P21554 whole entry): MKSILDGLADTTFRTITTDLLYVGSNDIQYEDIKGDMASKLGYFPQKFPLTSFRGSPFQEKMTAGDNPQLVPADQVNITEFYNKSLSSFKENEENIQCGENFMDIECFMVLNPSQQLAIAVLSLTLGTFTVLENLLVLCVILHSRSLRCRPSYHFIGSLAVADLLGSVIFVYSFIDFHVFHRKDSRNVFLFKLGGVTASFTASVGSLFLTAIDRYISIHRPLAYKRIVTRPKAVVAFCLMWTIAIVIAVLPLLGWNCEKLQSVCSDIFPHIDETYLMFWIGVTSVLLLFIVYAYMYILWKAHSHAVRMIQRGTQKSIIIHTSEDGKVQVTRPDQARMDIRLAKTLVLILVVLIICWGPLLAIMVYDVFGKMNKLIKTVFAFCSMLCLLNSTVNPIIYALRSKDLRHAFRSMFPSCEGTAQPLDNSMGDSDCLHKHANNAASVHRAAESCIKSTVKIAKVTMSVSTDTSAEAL
Sequence of Cannabinoid receptor 2 (P34972 whole entry): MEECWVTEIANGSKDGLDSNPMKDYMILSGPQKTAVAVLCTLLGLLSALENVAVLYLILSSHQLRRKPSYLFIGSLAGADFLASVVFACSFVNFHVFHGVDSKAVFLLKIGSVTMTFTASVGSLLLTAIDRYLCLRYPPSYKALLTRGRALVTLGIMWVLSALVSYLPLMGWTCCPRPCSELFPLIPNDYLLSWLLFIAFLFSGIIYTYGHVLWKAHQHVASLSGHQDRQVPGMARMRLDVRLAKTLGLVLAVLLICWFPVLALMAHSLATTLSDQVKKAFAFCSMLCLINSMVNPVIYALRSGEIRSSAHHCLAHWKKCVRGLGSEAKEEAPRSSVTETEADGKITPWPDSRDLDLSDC
Sequence of Cannabinoid receptor 1 (Mus musculus) (P47746 whole entry, looked up): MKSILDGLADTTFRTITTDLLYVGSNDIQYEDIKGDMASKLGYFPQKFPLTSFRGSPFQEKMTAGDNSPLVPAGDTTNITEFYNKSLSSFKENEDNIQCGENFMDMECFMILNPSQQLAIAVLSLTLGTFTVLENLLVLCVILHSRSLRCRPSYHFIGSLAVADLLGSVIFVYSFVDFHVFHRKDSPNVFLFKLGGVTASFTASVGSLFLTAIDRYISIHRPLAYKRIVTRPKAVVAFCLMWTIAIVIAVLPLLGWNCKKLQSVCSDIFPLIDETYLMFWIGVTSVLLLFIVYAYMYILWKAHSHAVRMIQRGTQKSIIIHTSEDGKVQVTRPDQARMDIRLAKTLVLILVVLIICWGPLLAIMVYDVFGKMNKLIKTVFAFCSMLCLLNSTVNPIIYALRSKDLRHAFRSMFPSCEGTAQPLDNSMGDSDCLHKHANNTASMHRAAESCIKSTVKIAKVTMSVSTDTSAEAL

Compound	Ki [1]	Ki [2]	Activity [3]	Ratio Ki [4]
O=C(NCCC(c1ccccc1)c1ccccc1)C(c1ccccc1)c1ccc(Cl)cc1 (stereo unspecified)	560 nM	> 7900 nM	–	–
O=C(NCCCc1ccccc1)C(c1ccccc1)c1ccccc1	3400 nM	> 7900 nM	–	–
O=C(NCCCc1ccccc1)C(c1ccccc1)c1ccc(Br)cc1 (stereo unspecified)	1900 nM	1800 nM	–	–
COc1ccc(C(C(=O)NCCC(c2ccccc2)c2ccccc2)c2ccccc2)cc1 (stereo unspecified)	560 nM	790 nM	–	–
O=C(NCCC(c1ccccc1)c1ccccc1)C(c1ccccc1)c1ccccc1	58 nM	7900 nM	inactive	140
O=C(Cc1ccccc1)NCCC(c1ccccc1)c1ccccc1	560 nM	> 7900 nM	–	–
O=C(Cc1ccc(Cl)cc1)NCCC(c1ccccc1)c1ccccc1	1600 nM	2400 nM	–	–
O=C(NCCC(c1ccccc1)c1ccccc1)C(Cl)(c1ccccc1)c1ccccc1	280 nM	1400 nM	–	–
O=C(NCCC(c1ccccc1)c1ccccc1)C(O)(c1ccccc1)c1ccccc1	2200 nM	2300 nM	–	–

The next lines start with the values.

Ki [1]	Ki [2]	Activity [3]	Ratio Ki [4]	Compound
560 nM	650 nM	–	–	Cc1ccc(C(C(=O)NCCC(c2ccccc2)c2ccccc2)c2ccccc2)cc1 (stereo unspecified)
560 nM	1100 nM	–	–	O=C(NCCC(c1ccccc1)c1ccccc1)C(c1ccccc1)c1ccc(O)cc1 (stereo unspecified)
2200 nM	2400 nM	–	–	O=C(NCCCc1ccccc1)C(c1ccccc1)c1ccc(Cl)cc1 (stereo unspecified)
560 nM	290 nM	–	–	CC(C(=O)NCCC(c1ccccc1)c1ccccc1)(c1ccccc1)c1ccccc1
800 nM	1300 nM	–	–	O=C(Cc1ccc(Br)cc1)NCCC(c1ccccc1)c1ccccc1
560 nM	790 nM	–	–	O=C(NCCC(c1ccccc1)c1ccccc1)C(c1ccccc1)c1ccc([N+](=O)[O-])cc1 (stereo unspecified)
220 nM	> 7900 nM	–	–	O=C(NCCC(c1ccccc1)c1ccccc1)C(c1ccccc1)c1ccc(Br)cc1 (stereo unspecified)
900 nM	1200 nM	–	–	Nc1ccc(C(C(=O)NCCC(c2ccccc2)c2ccccc2)c2ccccc2)cc1 (stereo unspecified)
